{"source": "paper PMC3176332", "about": "(European journal of medicinal chemistry, 2009)", "origin": "cited, not measured here", "tested_on": "ERβ", "settings": "relative to estradiol", "data": [{"compound": "O=c1c(-c2ccc(O)cc2)coc2cc(O)cc(O)c12", "note": "[compound 2, genistein]", "values": [{"measurement": "ERβ binding selectivity", "result": 20, "unit": "fold"}]}]}
